From patent US12071426B2, “IRE1 small molecule inhibitors” (Cornell University, priority 2018, dated 2024)

Columns and labels:
IRE1a [1] = target: T1, IRE1a (Homo sapiens, UniProt O75460); assay: In vitro FRET assay (XBP1 RNA probe cleavage); format: biochemical; conditions: SignalChem IRE1a protein 2 nM, fluorescence 485/515 nm
Method: In vitro FRET assay was performed to evaluate the ability of select compounds to inhibit IRE1, the results of which are summarized in Table 3. To perform the in vitro FRET assay, 1× complete assay buffer (CAB; […], 50 mM sodium citrate pH 7.15, 1 mM magnesium acetate, 0.02% tween 20) was used to dilute SignalChem IRE1a protein to a final concentration of 2 nM. Selected compounds were serially diluted with DMSO in a non-binding black 384-well plate for a total of 15 ul in each well. 2 ul of the serially diluted compound or DMSO control were then added to new wells containing 98 ul of 1× CAB, for a total volume of 100 ul, 10 ul of which were then transferred to wells of a new plate. 5 ul of the diluted IRE1a was then added to each well. 5 ul of a […] XBP1 RNA probe was then added to each well. Fluorescence was then read over 30 minutes in kinetic mode (485/515 nm).
Two RNA probes were used, XBP1 wildtype (SEQ ID NO: 2) which is able to be spliced by active IRE1a or XBP1 mutant (SEQ ID NO: 3) which is unable to be spliced. Each probe contained a 5′ 6-FAM modification and a 3′ IOWA Black FQ modification.
A second FRET assay was performed to assess ATP-mediated inhibition. In this case, compounds and IRE1a were prepared and combined as discussed above, with the addition of ATP up to 1 mM final concentration. […] Plates were then read over 30 minutes in kinetic mode (485/515 nm).

IRE1a [2] = target: T1, IRE1a; assay: IRE1a Endoribonuclease Nanoluciferase Assay (XBP1 luciferase reporter in 293T cells); format: cell-based; set-up: endogenous in cells; host or cells: 293T cells; conditions: 293T cells transfected with XBP1 luciferase reporter plasmid, ER stressors +/- inhibitors
Method: Compounds disclosed herein were assessed for disruption of IRE1 signaling using a IRE1a Endoribonuclease Nanoluciferase Assay. Briefly, 2.5×10^6 293T cells were seeded in a 10 cm^2 tissue culture plate. About 24 hours later, the cells were transfected with Effectene. In a 15 mL tube, the following was added: 2 ug XBP1 luciferase reporter plasmid (PGK-Luc2-P2A-XBP1u-Nanoluciferase-PEST); 300 ul EC buffer; and 16 ul Enhancer, followed by incubation at room temp for 5 minutes. Next, 60 ul Effectene (Qiagen 301427) was added, followed by incubation at room temperature for 10 minutes. 2.6 mL cDMEM media was added. Old media was aspirated from the cells, followed by addition of 7 mL fresh media. Full transfection mixture was added dropwise to cells. Cells were incubated for 6 hours, followed by trypsinization, centrifugation and resuspension in 11 mL fresh cDMEM media. 100 uL of cells were plated per a well in a 96 well plate. A day later, ER stressors of choice +/− inhibitors were added. To harvest, media was aspirated from cells completely, then 50 uL 1× passive lysis buffer (Promega: E1941) was added per well and put on shaker (300 rpm) for 30 minutes at room temperature. […] Plates were read on luminometer, 1000 ms integration time per well. […] Plates were read on luminometer, 1000 ms second integration time per well. […]

[3] = Microsome stability assay; format: in vitro ADME; conditions: liver microsomes, 1 μM, 37° C., 0.5 mg/ml microsomal protein
Method: The formic acid salt of a compound from Table 1 is tested under the microsome stability assay outlined below. Test compounds are incubated at 37° C. with liver microsomes (pooled from multiple donors) at 1 μM in the presence of a NADPH regenerating system at 0.5 mg/ml microsomal protein. Positive controls included Testosterone (3A4 substrate), Propafenone (2D6) and Diclofenac (2C9), which are incubated with microsomes in the presence of an NADPH regenerating system. At time points (0, 5, 10, 20, 30 and 60 minutes), samples are removed and immediately mixed with cold acetonitrile containing internal standard (IS). Test compounds incubated with microsomes without the NADPH regenerating system for 60 min is also included. A single point for each test condition (n=1) is obtained, and samples are analyzed by LC/MS/MS. Disappearance of the test compound is assessed based on peak area ratios of analyte/IS (no standard curve). […] Compound 1 was tested and had 45% or more of parent compound remaining after a 60 minute incubation.

T1 sequence (O75460 19-977): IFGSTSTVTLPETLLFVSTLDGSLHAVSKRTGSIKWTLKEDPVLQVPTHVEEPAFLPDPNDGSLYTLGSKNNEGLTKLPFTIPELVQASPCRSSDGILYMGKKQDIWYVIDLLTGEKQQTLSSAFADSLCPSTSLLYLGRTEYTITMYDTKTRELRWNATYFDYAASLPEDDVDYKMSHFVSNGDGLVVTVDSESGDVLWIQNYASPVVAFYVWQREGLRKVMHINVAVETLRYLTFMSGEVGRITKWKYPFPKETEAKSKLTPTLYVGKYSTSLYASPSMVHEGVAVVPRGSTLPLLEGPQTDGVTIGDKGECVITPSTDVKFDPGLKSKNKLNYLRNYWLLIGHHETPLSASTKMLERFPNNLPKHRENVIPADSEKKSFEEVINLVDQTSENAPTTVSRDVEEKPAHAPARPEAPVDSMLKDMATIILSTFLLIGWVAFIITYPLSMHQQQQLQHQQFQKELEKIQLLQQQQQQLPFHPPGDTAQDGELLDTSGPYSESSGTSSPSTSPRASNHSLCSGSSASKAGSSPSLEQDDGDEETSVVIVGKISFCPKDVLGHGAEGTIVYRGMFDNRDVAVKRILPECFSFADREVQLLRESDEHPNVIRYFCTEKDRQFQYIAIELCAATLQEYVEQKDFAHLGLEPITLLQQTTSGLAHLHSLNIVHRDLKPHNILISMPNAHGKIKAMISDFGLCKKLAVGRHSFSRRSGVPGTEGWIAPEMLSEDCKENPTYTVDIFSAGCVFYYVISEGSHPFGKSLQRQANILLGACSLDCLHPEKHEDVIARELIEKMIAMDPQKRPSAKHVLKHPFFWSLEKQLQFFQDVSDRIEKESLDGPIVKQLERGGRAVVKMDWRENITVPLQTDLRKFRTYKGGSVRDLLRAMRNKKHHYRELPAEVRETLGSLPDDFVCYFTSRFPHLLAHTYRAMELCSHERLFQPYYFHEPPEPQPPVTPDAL

IC50 (IRE1a [1]) | EC50 (IRE1a [2]) | parent compound remaining after a 60 minute incubation [3] | Structure (SMILES)
≤ 5 nM | ≤ 5 nM | – | CCc1cc(-c2ccc(NS(=O)(=O)c3ccccc3Cl)nc2C)nc2cnc(N[C@H]3CC[C@H](N(C)C)CC3)nc12 [Compound 2, 2-chloro-N-(5-(2-(((1r,4r)-4-(dimethylamino)cyclohexyl)-amino)-8-ethylpyrido[3,2-d]-pyrimidin-6-yl)-6-methyl-pyridin-2-yl)benzenesulfon-amide]
≤ 5 nM | ≤ 5 nM | ≥ 45% | CCc1cc(-c2ccc(NS(=O)(=O)c3cnccc3Cl)nc2C)cc2cnc(N[C@H]3CC[C@H](N(C)C)CC3)nc12 [Compound 1, 4-chloro-N-(5-(2-(((1r,4r)-4-(dimethylamino)cyclohexyl)-amino)-8-ethylquinazolin-6-yl)-6-methylpyridin-2-yl)-pyridine-3-sulfonamide]
